For orientation: IC50 means the midpoint of a concentration-inhibition curve.

In this test the target is Receptor-interacting serine/threonine-protein kinase 2 (Homo sapiens, UniProt O43353). Put plainly: TR-FRET Assay: All data was collected using a standard TR-FRET screening assay: LanthaScreen Tracer 199 at 50 nM, Eu-anti-His Antibody at 2 nM, 5 nM RIPK2 enzyme, and 1× Kinase Reaction Buffer. There was a 1 hour incubation prior to read. TR-FRET signal of the interaction (340Ex/665Em/615Em) was read at room temperature with standard setting. Background was subtracted of wells containing no enzyme. Percent inhibition was based on uninhibited controls log (inhibitor) vs. response. Variable slope equation was used with no constraints: Log Y=Bottom+(Top−Bottom)/(1+10^((Log IC50−X)*Hill Slope)).Analytical Instrumentation:NMR: Bruker UltraShield™-300 or Bruker Ascend™-400 spectrometers.LCMS: Shimadzu LCMS-2020 or Agilent technologies 1260 Infinity-6120 Quadrupole LC/MS.Purification:TLC plates: Thin-layer chromatography with E. Merck silica gel 60 F254 pre-coated plates (0.25 mm).Flash chromatography: Agela Technologies CHEETAH-MP200 CH16200 2T-A0099 or Biotage Isolera ISO-PSV ISPS 1832112.

Some results are limits rather than exact numbers.

Chain of Receptor-interacting serine/threonine-protein kinase 2 (O43353 whole entry): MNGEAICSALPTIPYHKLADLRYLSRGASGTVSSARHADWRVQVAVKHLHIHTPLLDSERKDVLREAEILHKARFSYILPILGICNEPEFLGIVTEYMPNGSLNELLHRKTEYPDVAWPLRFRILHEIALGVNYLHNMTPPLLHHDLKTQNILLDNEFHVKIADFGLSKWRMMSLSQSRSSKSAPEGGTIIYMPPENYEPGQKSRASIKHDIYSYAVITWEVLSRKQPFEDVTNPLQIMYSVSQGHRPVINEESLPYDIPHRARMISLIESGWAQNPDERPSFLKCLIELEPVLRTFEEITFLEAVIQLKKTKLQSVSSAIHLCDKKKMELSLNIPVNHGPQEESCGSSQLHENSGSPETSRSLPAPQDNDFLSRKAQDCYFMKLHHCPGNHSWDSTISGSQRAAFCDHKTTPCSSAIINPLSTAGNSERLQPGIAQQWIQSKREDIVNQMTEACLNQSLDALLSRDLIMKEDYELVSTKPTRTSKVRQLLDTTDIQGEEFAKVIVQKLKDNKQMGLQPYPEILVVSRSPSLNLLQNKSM

Consider `C[C@@H]1[C@H](c2cc3c(Nc4ccc5scnc5c4F)ccnc3s2)CCCN1C`, for which the concentration for half-maximal inhibition (IC50) is less than 10 nM.

Source of the values: ChEMBL document CHEMBL5728816, “Thienopyridine inhibitors of RIPK2” (2021).
